From the Deep4Chem optical property database
Values joined by “and” are separate entries in the source; they are usually repeats but may differ in a detail not shown here. Identical values can stand only once.

Assay: solvent given as SMILES

Work on `c1ccc(-c2nc(-c3ccccc3)nc(-c3ccc(-n4c5ccc(-c6ccc7sc8ccccc8c7c6)cc5c5cc(-c6ccc7sc8ccccc8c7c6)ccc54)cc3)n2)cc1` yielded an absorption maximum (in Cc1ccccc1) of 377 nm.
In the case of `c1cc2c3cc1c1ccc4c(c1)c1cc(ccc1[C@]15OCCO[C@]41OCCO5)c1ccc4c(c1)c1cc(ccc1[C@]15OCCO[C@]41OCCO5)c1ccc(c3c1)[C@]13OCCO[C@]21OCCO3`, the absorption maximum (in Cc1ccccc1) is reported as 300 nm.
`N#Cc1cc(-n2c3ccccc3c3ccccc32)c(-n2c3ccccc3c3cc(Br)ccc32)cc1C#N` gave an absorption maximum (in C1CCOC1) of 366 nm.
Work on `Clc1ccc(/C=C/c2ccncn2)cc1` yielded an absorption maximum (in ClCCl) of 310 nm.
Molecule `CCOC(=O)c1cc(C(=O)OCC)c2cccc(OCc3ccccc3)c2n1` has an absorption maximum (in CCO) of 366 nm.
In the case of `c1cc(-n2c3ccccc3c3ccccc32)c(-c2nc3ccccn3n2)c(-n2c3ccccc3c3ccccc32)c1`, the absorption maximum (in Cc1ccccc1) is reported as 338 nm.
For `Cc1nc(-c2ccc(-n3c4ccccc4c4ccccc43)cc2)cc(-c2ccc(-n3c4ccccc4c4ccccc43)cc2)n1`, the absorption maximum (in C1CCOC1) was 343 nm, the absorption maximum (in CN(C)C=O) was 343 nm and the absorption maximum (in Cc1ccccc1) was 355 nm. The absorption maximum (in ClC(Cl)Cl) was 343 nm.
With `COc1ccc2c3c(c4ccc(OC)cc4c2c1)C(C)(C)c1cc(-c2ccccc2)ccc1-3` the absorption maximum (in C1CCCCC1) was 389 nm.
`CC1=CC(/C=C/c2ccc(C)cc2)=[N+]2C1=C(c1ccccc1)c1c(C)cc(/C=C/c3ccc(C)cc3)n1[B-]2(F)F` gave an absorption maximum (in CC1CCCO1) of 631 nm.
Molecule `CCCCn1cc(/C=C/c2cc(=O)oc3cc(C)ccc23)c2ccccc21` has an absorption maximum (in CS(C)=O) of 414 nm and an absorption maximum (in ClC(Cl)Cl) of 398 nm.
Molecule `O=c1c2cc(C#Cc3ccc(Cl)cc3)ccc2nc2ccc(C#Cc3ccc(Cl)cc3)cn12` has an absorption maximum (in ClCCl) of 382 nm.
`N#Cc1ccc(/C=C2\C=C(c3ccccc3)NC2=O)cc1` gave an absorption maximum (in C1COCCO1) of 438 nm.
`COc1ccccc1-n1nc(C#N)c(N2CCCC2)n1` gave an absorption maximum (in CC#N) of 318 nm.
`CCCCCn1c2ccc(S(=O)(=O)Cl)cc2c(=O)c2cc(S(=O)(=O)Cl)ccc21` showed an absorption maximum (in CS(C)=O) of 406 nm.
`CC(C)(C)c1ccc2c(c1)c1cc(C(C)(C)C)ccc1n2-c1ccc(N(c2ccc(-c3ccc(-c4ccc(-c5ccc(-c6ccc(N(c7ccc(-n8c9ccc(C(C)(C)C)cc9c9cc(C(C)(C)C)ccc98)cc7)c7ccc(-n8c9ccc(C(C)(C)C)cc9c9cc(C(C)(C)C)ccc98)cc7)cc6)s5)c5nsnc45)s3)cc2)c2ccc(-n3c4ccc(C(C)(C)C)cc4c4cc(C(C)(C)C)ccc43)cc2)cc1` showed an absorption maximum (in ClCCl) of 528 nm.
`COC(=O)c1c(NC(C)(C)C)oc(-c2ccccc2)c1C(=O)OC` showed an absorption maximum (in CC#N) of 334 nm.
With `CCCCn1c2ccccc2c2c1c1c3ccccc3n(CCCC)c1c1c3ccccc3n(CCCC)c21` the absorption maximum (in C1CCOC1) was 316 nm.
In the case of `CC1=c2c3c4cccc5cccc(c=3c(C)[n+]2[B-](F)(F)n2c(C)c3cc6c(-c7ccccc7)c7c(c(-c8ccccc8)c6cc3c21)-c1cccc2cccc-7c12)c54`, the absorption maximum (in ClCCl) is reported as 658 nm.
Molecule `CC1(C)C2=C(c3ccccc31)S(=O)(=O)c1ccccc12` has an absorption maximum (in ClCCl) of 355 nm.
For `CCN(CC)c1ccc(-c2nc3c(nc2-c2ccc(B(c4c(C)cc(C)cc4C)c4c(C)cc(C)cc4C)cc2)c2ccccc2n3C)cc1`, the absorption maximum (in C1CCOC1) was 405 nm.
Molecule `Cc1ccc2[nH]c(-c3ccc(-c4ccc(-c5ccc(-c6nc7cc(C)ccc7[nH]6)cc5)c(C)c4)cc3)nc2c1` has an absorption maximum (in CN(C)C=O) of 333 nm.
In the case of `c1ccc2c(c1)-c1ccccc1[Si]21c2ccccc2-c2cc3c(cc21)-c1ccccc1[Si]31c2ccccc2-c2ccccc21`, the absorption maximum (in ClCCl) is reported as 329 nm.
In the case of `CCCCN1C(=O)C2=C(c3ccc(Br)cc3)NC(=O)C2=C1c1ccc(Br)cc1`, the absorption maximum (in ClCCl) is reported as 477 nm.
For `Cc1c2c(c(C)c3ccccc13)C1=C2C=CC2Nc3ccccc3NC12` (centres undefined), the absorption maximum (in ClC(Cl)Cl) was 437 nm.
Molecule `CCCCCOc1cc2oc(=O)c3c4ccc(N)cc4c4ccc5cccc6c(c1)c2c3c4c56` has an absorption maximum (in C1CCOC1) of 471 nm.
With `COc1ccc2c(c1)N(c1ccc(C)cc1)c1cc3c(cc1=N2)Oc1c(cc(C(C)(C)C)cc1C(C)(C)C)N=3` the absorption maximum (in CC#N) was 540 nm, the absorption maximum (in CCCCCC) was 562 nm and the absorption maximum (in CO) was 555 nm.
Molecule `CCN(CC)c1ccc2c(c1)OC1=[N+](c3ccc(I)cc3)[B-](F)(F)n3c(nc4ccccc43)C1=C2` has an absorption maximum (in ClCCl) of 496 nm.
Molecule `COC(=O)c1nc(-c2cccc3ccccc23)oc1C` has an absorption maximum (in C1CCCCC1) of 318 nm, an absorption maximum (in CC#N) of 308 nm and an absorption maximum (in CCO) of 309 nm. It also gave an absorption maximum (in CCOC(C)=O) of 317 nm.
`c1ccc(N(c2ccccc2)c2ccc(-c3ncc(-c4ccncc4)s3)cc2)cc1` gave an absorption maximum (in CO) of 397 nm.
For `CC(C)[Si](C#Cc1ccc(C#C[Si](C(C)C)(C(C)C)C(C)C)c2nc3cc4c(cc3nc12)[C@H]1c2ccccc2[C@@H]4c2ccccc21)(C(C)C)C(C)C`, the absorption maximum (in CCCCCC) was 435 nm and the absorption maximum (in ClCCl) was 435 nm.
`Cc1cc(C)c(B(c2ccc3c(c2)c2cc(B(c4c(C)cc(C)cc4C)c4c(C)cc(C)cc4C)ccc2n3-c2ccc(C(=C(c3ccccc3)c3ccccc3)c3ccccc3)cc2)c2c(C)cc(C)cc2C)c(C)c1` gave an absorption maximum (in C1CCOC1) of 358 nm.
With `C(=C\c1ccc(N(c2ccccc2)c2ccccc2)cc1)/c1ccc(-c2ccc(/C=C/c3ccc(N(c4ccccc4)c4ccccc4)cc3)cc2)cc1` the absorption maximum (in ClCCl) was 398 nm.
Molecule `COc1ccc(-c2nc3c([nH]2)=C2C=C(Cl)S[C@@]2(C)[C@]2(C)SC(Cl)=CC=32)cc1` has an absorption maximum (in CC#N) of 295 nm.
For `COC(=O)c1cc(=O)n(C)c2cc(-c3ccc4c(c3)OCCO4)sc12`, the absorption maximum (in CC#N) was 398 nm and the absorption maximum (in ClCCl) was 402 nm.
For `COc1ccc(-c2ccc3c(c2)c2cc(-c4ccc(OC)cc4)ccc2n3-c2ccc(C(=O)c3ccc4sc5ccccc5c4c3)cc2)cc1`, the absorption maximum (in Cc1ccccc1) was 366 nm.
In the case of `CCOC(=O)CN1C(=O)C2=C(c3ccc(N4CCCCC4)cc3)N(CC(=O)OCC)C(=O)C2=C1c1ccc(N2CCCCC2)cc1`, the absorption maximum (in CC#N) is reported as 523 nm, the absorption maximum (in CS(C)=O) is reported as 540 nm and the absorption maximum (in Cc1ccccc1) is reported as 520 nm.
Work on `c1ccc(CO[Si]23n4c5c6ccccc6c4/N=C4N=C(/N=c6/c7ccccc7c(n62)=c2c6ccccc6c(n23)=N5)c2ccccc2\4)cc1` (centres undefined) yielded an absorption maximum (in CN(C)C=O) of 658 nm.
In the case of `Cn1c(-c2ccc(-c3nc(-c4ccccc4)c(-c4ccccc4)n3C)cc2)nc(-c2ccccc2)c1-c1ccccc1`, the absorption maximum (in CC#N) is reported as 365 nm and 334 nm.
For `COc1ccc2c(c1)C(=O)c1cc(OC)cc(OC)c1-2`, the absorption maximum (in C1CCCCC1) was 478 nm, the absorption maximum (in CC#N) was 491 nm and the absorption maximum (in CCO) was 492 nm.
